Holding throughout (test): AK assay 384-well format, Prestwick library screening
Assay [1] concerns E. faecium. The format is cell-based, Enterococcus faecium. Particulars: 50 μM final drug concentration; for fold induction at 50 µM: Enterococcus faecium, 3 h.
Assay [2] has as its system S. aureus strain USA300-0114. The format is cell-based, Staphylococcus aureus. Conditions: 50 μM final drug concentration; for fold induction at 50 µM: Staphylococcus aureus, USA300, 3 h.
Assay [3] concerns K. pneumoniae. The format is cell-based, Klebsiella pneumoniae. Particulars: 50 μM final drug concentration; for fold induction at 50 µM: Klebsiella pneumoniae, 3 h.
Assay [4] has as its system A. baumannii strain 98-37-09. Type of assay: cell-based, Acinetobacter baumannii. Particulars: 50 μM final drug concentration; for fold induction at 50 µM: Acinetobacter baumannii, 983709, 3 h.
Assay [5] relates to P. aeruginosa. Type of assay: cell-based, Pseudomonas aeruginosa. Particulars: 50 μM final drug concentration; for fold induction at 50 µM: Pseudomonas aeruginosa, 3 h.
In assay [6] the test system is E. cloacae. The format is cell-based, Enterobacter cloacae. Particulars: 50 μM final drug concentration; for fold induction at 50 µM: Enterobacter cloacae, 3 h.
The test system of assay [7] is E. coli. Type of assay: cell-based, Escherichia coli. Particulars: 50 μM final drug concentration; for fold induction at 50 µM: Escherichia coli, 3 h.
The mark [8] stands for this setting: 384-well format, cutoff for positive-scoring molecules 3-fold increase.

Structures can show the parent of a compound that is named as a salt. Where two headings read alike, the source gives them in different places.

With `Cc1c(Cl)cccc1Nc1ccccc1C(=O)O` [Tolfenamic acid], the fold induction at 50 µM in assay [1] (planktonic E. faecium, 384-well, cutoff for positive-scoring molecules 3-fold increase, read-out: AK-based Prestwick Library Screening Results: E. faecium (increase in extracellular AK activity)) was 1.1; in assay [2] (planktonic S. aureus, 384-well, cutoff for positive-scoring molecules 3-fold increase, read-out: AK-based Prestwick Library Screening Results: S. aureus (increase in extracellular AK activity)), 0.5; in assay [3] (planktonic K. pneumoniae, 384-well, cutoff for positive-scoring molecules 3-fold increase, read-out: AK-based Prestwick Library Screening Results: K. pneumoniae (increase in extracellular AK activity)) it was 0.8; in assay [4] (planktonic A. baumannii, 384-well, cutoff for positive-scoring molecules 3-fold increase, read-out: AK-based Prestwick Library Screening Results: A. baumannii (increase in extracellular AK activity)) it was 1.4; in assay [5] (planktonic P. aeruginosa, 384-well, cutoff for positive-scoring molecules 3-fold increase, read-out: AK-based Prestwick Library Screening Results: P. aeruginosa (increase in extracellular AK activity)), 1.2; in assay [6] (planktonic E. cloacae, 384-well, cutoff for positive-scoring molecules 3-fold increase, read-out: AK-based Prestwick Library Screening Results: E. cloacae (increase in extracellular AK activity)) it was 1.6. In addition, the fold induction at 50 µM in assay [7] (planktonic E. coli, 384-well, cutoff for positive-scoring molecules 3-fold increase, read-out: AK-based Prestwick Library Screening Results: E. coli (increase in extracellular AK activity)) turned out to be 1.
In the case of `O=C(O)CCCc1ccc(N(CCCl)CCCl)cc1` [Chlorambucil], the fold induction at 50 µM in assay [1] (planktonic E. faecium, […], read-out: AK-based Prestwick library screening result, E. faecium (fold increase in extracellular AK activity)) came out at 0.9; in assay [2] (planktonic S. aureus, […], read-out: AK-based Prestwick library screening result, S. aureus (fold increase in extracellular AK activity)) it was 0.8; in assay [3] (planktonic K. pneumoniae, […], read-out: AK-based Prestwick library screening result, K. pneumoniae (fold increase in extracellular AK activity)), 0.7; in assay [4] (planktonic A. baumannii, […], read-out: AK-based Prestwick library screening result, A. baumannii (fold increase in extracellular AK activity)), 0.9; in assay [5] (planktonic P. aeruginosa, […], read-out: AK-based Prestwick library screening result, P. aeruginosa (fold increase in extracellular AK activity)), 0.8; in assay [6] (planktonic E. cloacae, […], read-out: AK-based Prestwick library screening result, E. cloacae (fold increase in extracellular AK activity)), 1.2. Moreover, the fold induction at 50 µM in assay [7] (planktonic E. coli, […], read-out: AK-based Prestwick library screening result, E. coli (fold increase in extracellular AK activity)) is 0.9.
Consider `CNCC(O)c1ccc(OC(=O)C(C)(C)C)c(OC(=O)C(C)(C)C)c1` (stereo not drawn) [Dipivefrin hydrochloride], for which the fold induction at 50 µM in assay [1] (planktonic, cutoff for positive 3-fold increase, read-out: AK-based Prestwick Library Screening Results, E. faecium (fold increase in extracellular AK activity)) worked out at 1; in assay [2] (planktonic, cutoff for positive 3-fold increase, read-out: AK-based Prestwick Library Screening Results, S. aureus (fold increase in extracellular AK activity)) it was 1.2; in assay [3] (planktonic, cutoff for positive 3-fold increase, read-out: AK-based Prestwick Library Screening Results, K. pneumoniae (fold increase in extracellular AK activity)), 1.3; in assay [4] (planktonic, cutoff for positive 3-fold increase, read-out: AK-based Prestwick Library Screening Results, A. baumannii (fold increase in extracellular AK activity)), 1.4; in assay [5] (planktonic, cutoff for positive 3-fold increase, read-out: AK-based Prestwick Library Screening Results, P. aeruginosa (fold increase in extracellular AK activity)), 1.3; in assay [6] (planktonic, cutoff for positive 3-fold increase, read-out: AK-based Prestwick Library Screening Results, E. cloacae (fold increase in extracellular AK activity)), 1.6. For the same compound, the fold induction at 50 µM in assay [7] (planktonic, […], read-out: AK-based Prestwick Library Screening Results, E. coli (fold increase in extracellular AK activity)) worked out at 1.4.
In the case of `C[C@H]1C[C@@H]2[C@H]([C@@H](O)C[C@@]3(C)[C@H]2CC[C@]3(O)C(=O)CO)[C@@]2(C)C=CC(=O)C=C12` [Methylprednisolone, 6-alpha], the “AK-based Prestwick Library Screening Results, E. faecium (increase in extracellular AK activity)” value in assay [1] (setting [8]) is on record as 1.0. Moreover, the “AK-based Prestwick Library Screening Results, S. aureus (increase in extracellular AK activity)” value in assay [2] (setting [8]) is 0.8. In addition, in assay [3] (setting [8]), the “AK-based Prestwick Library Screening Results, K. pneumoniae (increase in extracellular AK activity)” value is 0.7. The “AK-based Prestwick Library Screening Results, A. baumannii (increase in extracellular AK activity)” value in assay [4] (setting [8]) worked out at 0.9. Besides, in assay [5] (setting [8]), the “AK-based Prestwick Library Screening Results, P. aeruginosa (increase in extracellular AK activity)” value turned out to be 0.9. For the same compound, the “AK-based Prestwick Library Screening Results, E. cloacae (increase in extracellular AK activity)” value in assay [6] (setting [8]) was 1.3. In assay [7] (setting [8]), the “AK-based Prestwick Library Screening Results, E. coli (increase in extracellular AK activity)” value was determined as 0.8.
As to `O=C(Cn1ccnc1[N+](=O)[O-])NCCO` [Etanidazole], the fold induction at 50 µM in assay [1] (planktonic, cutoff for positive-scoring molecules 3-fold increase, read-out: AK-based Prestwick Library Screening Results, E. faecium (fold increase in extracellular AK activity)) was 0.8; in assay [2] (planktonic, cutoff for positive-scoring molecules 3-fold increase, read-out: AK-based Prestwick Library Screening Results, S. aureus (fold increase in extracellular AK activity)), 0.4; in assay [3] (planktonic, cutoff for positive-scoring molecules 3-fold increase, read-out: AK-based Prestwick Library Screening Results, K. pneumoniae (fold increase in extracellular AK activity)), 0.5; in assay [4] (planktonic, cutoff for positive-scoring molecules 3-fold increase, read-out: AK-based Prestwick Library Screening Results, A. baumannii (fold increase in extracellular AK activity)), 0.5; in assay [5] (planktonic, cutoff for positive-scoring molecules 3-fold increase, read-out: AK-based Prestwick Library Screening Results, P. aeruginosa (fold increase in extracellular AK activity)), 0.4; in assay [6] (planktonic, cutoff for positive-scoring molecules 3-fold increase, read-out: AK-based Prestwick Library Screening Results, E. cloacae (fold increase in extracellular AK activity)), 0.4. Further, the fold induction at 50 µM in assay [7] (planktonic, cutoff for positive-scoring molecules 3-fold increase, read-out: AK-based Prestwick Library Screening Results, E. coli (fold increase in extracellular AK activity)) worked out at 0.5.
`C1CCN2C[C@@H]3C[C@@H](CN4CCCC[C@@H]34)[C@H]2C1` [Sparteine (−)]: the “AK-based Prestwick Library Screening Results, E. faecium (fold increase in extracellular AK activity)” value in assay [1] (planktonic, […]) is given as 1.0. Further, the “AK-based Prestwick Library Screening Results, S. aureus (fold increase in extracellular AK activity)” value in assay [2] (planktonic, […]) was determined as 1.1. Moreover, in assay [3] (planktonic, […]), the “AK-based Prestwick Library Screening Results, K. pneumoniae (fold increase in extracellular AK activity)” value was 1.0. The “AK-based Prestwick Library Screening Results, A. baumannii (fold increase in extracellular AK activity)” value in assay [4] (planktonic, […]) was determined as 1.0. The “AK-based Prestwick Library Screening Results, P. aeruginosa (fold increase in extracellular AK activity)” value in assay [5] (planktonic, […]) is 1.0. In assay [6] (planktonic, […]), the “AK-based Prestwick Library Screening Results, E. cloacae (fold increase in extracellular AK activity)” value was determined as 1.7. The “AK-based Prestwick Library Screening Results, E. coli (fold increase in extracellular AK activity)” value in assay [7] (planktonic, […]) was found to be 1.3.

The values above are taken from patent US10004701B2, “Methods and compositions for treating infection” (UNIVERSITY OF ROCHESTER, priority 2012, dated 2018).
